Like-named read-outs stand apart in the source and are kept apart here. Marks after values point to notes of the source that are not given here.
Assays:
[1] = test system: root knot nematode (RKN); test: RKN greenhouse soil assay on cucumber plants; type: in vivo, Meloidogyne incognita
Outline: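 Cucumber in sandy soil in pots drenched with 5 ml compound solution (acetone in 0.05% Triton X 100; 1 mg per four pots = 1 kg/ha), 7 days or 0 days before inoculation. Root knot nematode eggs applied ≥4 h after treatment; galling rated 14 days after inoculation, four replicates.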

[2] = test system: Meloidogyne incognita; test: M. incognita miniaturized greenhouse assay on cucumber seedlings (root galling); type: in vivo; set-up: key to 1 ppm gall ratings / 1 ppm gall rating: mean of 3 gall ratings: 0=0-5%, 1=6-20%, 2=21-50%, 3=51-100% root galled; details: for 8 ppm gall ratings: average of triplicate gall rating, scale 0-3 (% root mass galled)
Outline: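 Compound in acetone/Triton X100 stock (5 mg/mL) diluted into water with 0.015% Triton X100 and applied to sand-planted sprouted cucumber seedlings; inoculated with 500 M. incognita eggs two days after planting. Roots harvested 10–12 days later; galling scored 0–3 by % root mass galled, averaged over triplicates, plus visual root phytotoxicity rating.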

[3] = test system: root knot nematode; test: Pre-plant incorporated (PPI) greenhouse test of root knot nematode on cucumber plants; type: in vivo, Meloidogyne incognita; details: for pest or weed control at 4000 g/ha / pest or weed control at 8000 g/ha / pest or weed control at 2000 g/ha: Meloidogyne incognita, read-out: percent control (galling reduction) relative to the control blank treatment
Source text: The PPI test examines the effect of pre-incorporation of compounds in soil and longer aging to simulate in furrow methods of nematicide application in the field. The PPI test exposes compounds to a higher volume of soil and drying which can result in more severe soil binding. Compounds are also aged for longer periods which can lead to more extensive biotic and abiotic degradation further limiting activity.
The chemically treated soil (sandy soil mix) for all treatment days (e.g., 7 days, 14 days, 21 days) treatments is potted into their appropriate pots. On the same day the 7 day treatment pots are seeded. One week later eggs are applied and 14 days after egg application the test is harvested. The 14 day treatments are planted 7 days after the first planting. The 14 day planting and 7 day inoculation happen on the same day. One week later the 14 day treatments are inoculated with eggs. These are harvested 14 days after the inoculation. The 21 day treatments are planted 14 days after the first planting. The 14 day inoculation and 21 day planting are done on the same day. One week later the 21 day plants are inoculated with eggs. The 7 day treatment is harvested the same day as the 21 day inoculation. Fourteen days after inoculation the 21 day plants are harvested.
For each compound a stock is prepared using 4 mg material in 4 ml of acetone. The soil is mixed by placing 80 ml of field soil and 320 ml of sand in a plastic bag and mixing well. The formulation for treatment is done by adding 2.13 ml (8 kg/ha rate), 1.06 ml (4 kg/ha rate) or 0.53 ml (2 kg/ha rate) to a vial and raising it with 10 ml in 0.05%×100. Soil is then treated by adding the entire 10 ml to the 400 ml of mix in the bag. The treated soil is immediately mixed well in the sealed bag to distribute the compound evenly. Approximately 95 ml is used to fill each 2-inch square pot up to the top with some soil compression and flattening. For each compound and for the control treatments 4 pots are filled. All pots are watered until moist but with no run-out through the bottom.
The PPI test simulates 8, 4 and 2 kg/ha rates incorporated 15 cm deep in the field and is equivalent to the 2, 1 and 0.5 kg/ha drench application rates in the standard 2-inch pot cucumber greenhouse assay.

[4] = Acetone 1 mg/kg, standard 10% acetone in 0.05% Triton X 100 formulation
[5] = Radex 1 mg/kg, emulsifiable concentrate, 6.25% active ingredient by weight
[6] = fourteen day pre-plant incorporated, 2 kg/ha rate, test a
[7] = fourteen day pre-plant incorporated, 4 kg/ha rate, test a
[8] = fourteen day pre-plant incorporated, 4 kg/ha rate, test b
[9] = fourteen day pre-plant incorporated, 8 ka/ha rate, test a
[10] = fourteen day pre-plant incorporated, 8 ka/ha rate, test b
[11] = 0 day treatment, 0.05 kg/ha, test a
[12] = 0 day treatment, 0.1 kg/ha, test a
[13] = 0 day treatment, 0.25 kg/ha, test a
[14] = 0 day treatment, 1 kg/ha, test b
[15] = 24 h, twenty one day pre-plant incorporated, 4 kg/ha rate
[16] = 24 h, twenty one day pre-plant incorporated, 8 ka/ha rate

Compound: CCOP(=O)(NC(C)C)Oc1ccc(SC)c(C)c1 (stereo not shown) [Fenamiphos, fenamiphos, reference compound]
- percent control (galling reduction) relative to the appropriate control blank treatment [1, 4]: 98%
- percent control (galling reduction) relative to the appropriate control blank treatment [1, 5]: 99%
- 1 ppm gall ratings ([2]; Table 1B test c): 0^c, 0^d, 0^e (0=0-5%)
- 1 ppm gall ratings ([2]; Table 1B test d): 0^c, 0^d, 0^e (0=0-5%)
- 1 ppm gall ratings ([2]; Table 1B test e): 0^c, 0^d, 0^e (0=0-5%)
- percent control (galling reduction) relative to the control blank treatment [3, 6]: 88^a percent
- percent control (galling reduction) relative to the control blank treatment [3, 7]: 99^a percent
- percent control (galling reduction) relative to the control blank treatment [3, 8]: 100^b percent
- percent control (galling reduction) relative to the control blank treatment [3, 9]: 100^a percent
- percent control (galling reduction) relative to the control blank treatment [3, 10]: 100^b percent
- percent control (galling reduction) relative to the control blank treatment ([3]; seven day pre-plant incorporated, 4 kg/ha rate): 96%
- percent control (galling reduction) relative to the control blank treatment ([3]; seven day pre-plant incorporated, 8 ka/ha rate): 100%
- percent control (galling reduction) relative to the control blank treatment ([3]; twenty one day pre-plant incorporated, 4 kg/ha rate): 84%
- percent control (galling reduction) relative to the control blank treatment ([3]; twenty one day pre-plant incorporated, 8 ka/ha rate): 99%

Compound: c1ccc(-c2noc(-c3cccs3)n2)cc1 [compound 1822]
- percent control (galling reduction) relative to the control blank treatment [1, 11]: 7^a percent
- percent control (galling reduction) relative to the control blank treatment [1, 12]: 47^a percent
- percent control (galling reduction) relative to the control blank treatment [1, 13]: 60%
- percent control (galling reduction) relative to the control blank treatment ([1]; 0 day treatment, 0.25 kg/ha, test b): 64%
- percent control (galling reduction) relative to the control blank treatment ([1]; 0 day treatment, 1 kg/ha, test a): 89%
- percent control (galling reduction) relative to the control blank treatment [1, 14]: 81%
- percent control (galling reduction) relative to the control blank treatment ([1]; 7 day treatment, 1 kg/ha, test a): 85%
- percent control (galling reduction) relative to the control blank treatment ([1]; 7 day treatment, 1 kg/ha, test b): 75%
- percent control (galling reduction) relative to the appropriate control blank treatment [1, 4]: 94%
- percent control (galling reduction) relative to the appropriate control blank treatment [1, 5]: 98%
- 1 ppm gall ratings ([2]; Table 1B test a): 0.33
- 1 ppm gall ratings ([2]; Table 1B test b): 0.67
- 1 ppm gall ratings ([2]; Table 1B test c): 0.33
- 1 ppm gall ratings ([2]; Table 1B test d): 0 (0=0-5%)
- 1 ppm gall rating ([2]; Table 1C test a): 0 (0=0-5%)
- 1 ppm gall rating ([2]; Table 1C test b): 0.33
- 1 ppm gall rating ([2]; Table 1D test a): 1.33^a
- 8 ppm gall rating ([2]; Table 1D test a): 0^a (0=0-5%)
- 8 ppm gall ratings [2]: 0 (0=0-5%)
- pest or weed control at 4000 g/ha [3, 15]: 82%
- pest or weed control at 8000 g/ha [3, 16]: 95%
- pest or weed control at 4000 g/ha ([3]; 168 h, seven day pre-plant incorporated, 4 kg/ha rate): 99%
- pest or weed control at 8000 g/ha ([3]; 168 h, seven day pre-plant incorporated, 8 ka/ha rate): 99%
- pest or weed control at 2000 g/ha [3, 6]: 67%
- pest or weed control at 4000 g/ha [3, 7]: 97%
- pest or weed control at 8000 g/ha [3, 9]: 100%

Compound: Brc1ccc(-c2cnc(-c3cccs3)o2)cc1 [compound 4776]
- percent control (galling reduction) relative to the control blank treatment [1, 14]: — 99^b percent
- 1 ppm gall ratings ([2]; Table 1B test a): 1 (1=6-20%)
- 1 ppm gall ratings ([2]; Table 1B test b): 1 (1=6-20%)
- 1 ppm gall ratings ([2]; Table 1B test c): 0.33
- 1 ppm gall ratings ([2]; Table 1B test d): 0.33
- 1 ppm gall rating ([2]; Table 1C test a): 1 (1=6-20%)
- 1 ppm gall rating ([2]; Table 1C test b): 0.33
- 1 ppm gall rating ([2]; Table 1C test c): 1 (1=6-20%)
- 1 ppm gall rating ([2]; Table 1D test a): 0^a (0=0-5%)
- 8 ppm gall rating ([2]; Table 1D test a): 0^a (0=0-5%)
- 8 ppm gall ratings [2]: 0 (0=0-5%)
- pest or weed control at 4000 g/ha [3, 15]: 50%
- pest or weed control at 8000 g/ha [3, 16]: 80%

Compound: Cc1cc(Cl)ccc1-c1noc(-c2ccco2)n1 [compound 5823]
- percent control (galling reduction) relative to the control blank treatment [1, 11]: 53%
- percent control (galling reduction) relative to the control blank treatment ([1]; 0 day treatment, 0.05 kg/ha, test c): 38%
- percent control (galling reduction) relative to the control blank treatment [1, 12]: 85%
- percent control (galling reduction) relative to the control blank treatment ([1]; 0 day treatment, 0.1 kg/ha, test c): 91%
- percent control (galling reduction) relative to the control blank treatment [1, 13]: 95%
- percent control (galling reduction) relative to the control blank treatment ([1]; 0 day treatment, 0.25 kg/ha, test c): 98%
- 1 ppm gall ratings ([2]; Table 1B test a): 1.67
- 1 ppm gall ratings ([2]; Table 1B test b): 0.33
- 1 ppm gall ratings ([2]; Table 1B test e): 0.33
- pest or weed control at 2000 g/ha [3, 6]: 85%
- pest or weed control at 4000 g/ha [3, 7]: 98%
- pest or weed control at 4000 g/ha [3, 8]: 94%
- pest or weed control at 8000 g/ha [3, 9]: 100%
- pest or weed control at 8000 g/ha [3, 10]: 100%

— US10827753B2, “Compositions and methods for controlling nematodes” (Monsanto Technology LLC, priority 2007, dated 2020)
